From the NIST ThermoML archive (doi:10.1016/j.jct.2017.07.024)

What was measured:
[1] = refractive index (Na D-line) (dimensionless); wn = mass fraction of the nth substance listed; settings: 100 kPa, Liquid, Standard Abbe refractometry
[2] = wn = mass fraction of the nth substance listed; settings: for surface tension liquid-gas: Maximal bubble pressure; for mass density: 100 kPa, Liquid, Vibrating tube method

CCCCCn1cc[n+](C)c1.C[C@@H](O)[C@H](N)C(=O)[O-] [1-pentyl-3-methylimidazolium DL-threoninate] + O
Settings	mass density, [2] [kg/m3]	refractive index, [1]	surface tension liquid-gas, [2] [mN/m]
288.15 K, w2 = 0.0066	1107.18	1.5071	38.8
288.15 K, w2 = 0.0097	1106.95	1.5067	39
288.15 K, w2 = 0.0119	1106.76	1.5064	39.2
288.15 K, w2 = 0.0141	1106.59	1.5061	39.4
288.15 K, w2 = 0.0165	1106.41	1.5058	39.6
293.15 K, w2 = 0.0066	1103.87	1.5056	38.4
293.15 K, w2 = 0.0097	1103.64	1.5053	38.6
293.15 K, w2 = 0.0119	1103.45	1.505	38.8
293.15 K, w2 = 0.0141	1103.28	1.5047	39
293.15 K, w2 = 0.0165	1103.1	1.5044	39.2
298.15 K, w2 = 0.0066	1100.56	1.504	38.2
298.15 K, w2 = 0.0097	1100.33	1.5037	38.4
298.15 K, w2 = 0.0119	1100.14	1.5034	38.6
298.15 K, w2 = 0.0141	1099.97	1.5032	38.8
298.15 K, w2 = 0.0165	1099.79	1.5028	39
303.15 K, w2 = 0.0066	1097.21	1.5024	37.8
303.15 K, w2 = 0.0097	1096.98	1.5021	38.1
303.15 K, w2 = 0.0119	1096.79	1.5017	38.3
303.15 K, w2 = 0.0141	1096.61	1.5015	38.5
303.15 K, w2 = 0.0165	1096.42	1.5012	38.7
308.15 K, w2 = 0.0066	1093.89	1.5009	37.5
308.15 K, w2 = 0.0097	1093.66	1.5006	37.8
308.15 K, w2 = 0.0119	1093.46	1.5003	38
308.15 K, w2 = 0.0141	1093.29	1.5	38.2
308.15 K, w2 = 0.0165	1093.09	1.4997	38.4
313.15 K, w2 = 0.0066	1090.6	1.4992	37.2
313.15 K, w2 = 0.0097	1090.36	1.4988	37.5
313.15 K, w2 = 0.0119	1090.16	1.4984	37.7
313.15 K, w2 = 0.0141	1089.98	1.4982	37.9
313.15 K, w2 = 0.0165	1089.78	1.4978	38.1
318.15 K, w2 = 0.0066	1087.14	1.4977	36.9
318.15 K, w2 = 0.0097	1086.89	1.4974	37.2
318.15 K, w2 = 0.0119	1086.69	1.497	37.4
318.15 K, w2 = 0.0141	1086.51	1.4967	37.6
318.15 K, w2 = 0.0165	1086.31	1.4963	37.9
323.15 K, w2 = 0.0066	1083.97	1.4961	36.6
323.15 K, w2 = 0.0097	1083.72	1.4957	36.9
323.15 K, w2 = 0.0119	1083.51	1.4954	37.1
323.15 K, w2 = 0.0141	1083.32	1.4951	37.3
323.15 K, w2 = 0.0165	1083.11	1.4947	37.6
328.15 K, w2 = 0.0066	1080.67	1.4945	36.3
328.15 K, w2 = 0.0097	1080.42	1.4941	36.6
328.15 K, w2 = 0.0119	1080.21	1.4937	36.8
328.15 K, w2 = 0.0141	1080.02	1.4934	37
328.15 K, w2 = 0.0165	1079.81	1.4931	37.3

CCCn1cc[n+](C)c1.C[C@@H](O)[C@H](N)C(=O)[O-] [1-propyl-3-methylimidazolium DL-threoninate] + O
Settings	mass density, [2] [kg/m3]	refractive index, [1]	surface tension liquid-gas, [2] [mN/m]
288.15 K, w2 = 0.0065	1150.46	1.5132	42
288.15 K, w2 = 0.0092	1150.15	1.5127	42.2
288.15 K, w2 = 0.0116	1149.81	1.5121	42.4
288.15 K, w2 = 0.0135	1149.56	1.5117	42.6
288.15 K, w2 = 0.0161	1149.22	1.5111	42.8
293.15 K, w2 = 0.0065	1147.75	1.5116	41.7
293.15 K, w2 = 0.0092	1147.33	1.5111	41.9
293.15 K, w2 = 0.0116	1146.94	1.5105	42.1
293.15 K, w2 = 0.0135	1146.61	1.5101	42.3
293.15 K, w2 = 0.0161	1146.22	1.5095	42.5
298.15 K, w2 = 0.0065	1143.37	1.5101	41.3
298.15 K, w2 = 0.0092	1142.89	1.5096	41.6
298.15 K, w2 = 0.0116	1142.43	1.509	41.8
298.15 K, w2 = 0.0135	1142.12	1.5086	42
298.15 K, w2 = 0.0161	1141.66	1.508	42.2
303.15 K, w2 = 0.0065	1139.97	1.5088	41
303.15 K, w2 = 0.0092	1139.49	1.5082	41.3
303.15 K, w2 = 0.0116	1139.07	1.5077	41.5
303.15 K, w2 = 0.0135	1138.7	1.5073	41.7
303.15 K, w2 = 0.0161	1138.27	1.5068	41.9
308.15 K, w2 = 0.0065	1136.59	1.5074	40.7
308.15 K, w2 = 0.0092	1136.11	1.5069	41
308.15 K, w2 = 0.0116	1135.68	1.5064	41.2
308.15 K, w2 = 0.0135	1135.31	1.5061	41.4
308.15 K, w2 = 0.0161	1134.87	1.5056	41.6
313.15 K, w2 = 0.0065	1133.16	1.506	40.4
313.15 K, w2 = 0.0092	1132.71	1.5055	40.7
313.15 K, w2 = 0.0116	1132.22	1.5052	40.9
313.15 K, w2 = 0.0135	1131.88	1.5048	41.1
313.15 K, w2 = 0.0161	1131.4	1.5044	41.3
318.15 K, w2 = 0.0065	1129.72	1.5044	40.1
318.15 K, w2 = 0.0092	1129.19	1.504	40.4
318.15 K, w2 = 0.0116	1128.78	1.5036	40.6
318.15 K, w2 = 0.0135	1128.43	1.5033	40.8
318.15 K, w2 = 0.0161	1127.95	1.5028	41.1
323.15 K, w2 = 0.0065	1126.27	1.5029	39.8
323.15 K, w2 = 0.0092	1125.8	1.5024	40.1
323.15 K, w2 = 0.0116	1125.32	1.5021	40.4
323.15 K, w2 = 0.0135	1124.96	1.5018	40.6
323.15 K, w2 = 0.0161	1124.48	1.5013	40.9
328.15 K, w2 = 0.0065	1122.82	1.5015	39.5
328.15 K, w2 = 0.0092	1122.34	1.5011	39.8
328.15 K, w2 = 0.0116	1121.86	1.5007	40.1
328.15 K, w2 = 0.0135	1121.5	1.5004	40.4
328.15 K, w2 = 0.0161	1121	1.4999	40.7
